35 compounds from a melting point compilation (Tetko et al.; mined from patent text by program, amines drawn as free bases though some values may be those of a salt) can be followed below.

Where only a bound is given, the exact number is not on record here.

As usually defined, the melting point is the temperature of the solid-liquid transition. For the compound `CS(=O)(=O)c1ccc(C(=O)N[C@H]2CC[C@H](CCN3CCN(c4nccc5c4OCC5)CC3)CC2)s1`, the melting point worked out at 212 °C.

With `Cc1ccc(C)n1-c1ccc(CC#N)cc1`, the melting point was in the range of 112 to 113 °C.

Compound `CCNC(=O)N1N=C(c2ccc(N)cc2)c2cc(Cl)ccc2CC1C` (stereo not given) displayed a melting point of 165 to 167 °C.

For `Cc1nc2ccc3c(c2o1)O[C@@H](CN[C@H]1CC[C@@H](c2c[nH]c4ccc(F)cc42)CC1)CO3`, the melting point fell in the range of 80 to 82 °C.

Regarding `CSC1=NCCN1CC(C)O` (stereo not given), the melting point lay in the range of 114 to 116 °C.

On to `COC(=O)C(C)c1nsc2ccc([N+](=O)[O-])cc12` (stereo not given), for which the melting point lay within 88 to 90 °C.

Regarding `CC1C(=O)N(c2ccc([N+](=O)[O-])cc2)C(=S)N1c1ccc(Cc2ccccc2)cc1` (stereo not given), the melting point worked out at 200 °C.

`Cn1cc(C2=C(c3c4n(c5ccccc35)CCN(C(=S)n3ccnc3)C4)C(=O)NC2=O)c2ccccc21` yielded a melting point of 244 to 247 °C.

`O[C@H]1c2cc(OCc3cccnc3)ccc2OC[C@H]1Cc1cccnc1` (relative stereo) displayed a melting point of 145 to 147 °C.

`COc1ccc2c3c([nH]c2c1[N+](=O)[O-])C(O)CC3` (stereo not given) registered a melting point of 192 °C.

The compound `O=C1c2ccc([N+](=O)[O-])cc2COc2cc(Nc3ccc(F)cc3F)ccc21` registered a melting point of 210 to 214 °C.

On to `O=P(O)(O)Cc1cc(Cl)c(Oc2ccc(O)c(Cc3ccc(F)cc3)c2)c(Cl)c1`, for which the melting point fell in the range of 207 to 210 °C.

Compound `C1=C(c2cccc3[nH]ccc23)CNCC1` displayed a melting point of 156 °C.

Take `O=C1c2ccccc2-c2c1c1ccccc1c(=O)n2CCCl`: the melting point was in the range of 210 to 212 °C.

As for `O=c1c2c(F)cccc2nc(C(S)c2ncnc3[nH]cnc23)n1-c1ccccc1Cl` (stereo not given), the melting point was in the range of 223 to 224 °C.

In turn, `Nc1cc(Cl)cc2cccnc12` came in with a melting point of 70 to 73 °C.

On to `N#Cc1c2ccccc2c(-c2ccc(O[C@H](Cc3ccccc3)C(=O)O)cc2)c2c1sc1ccccc12`, for which the melting point was in the range of 145 to 148 °C.

Consider `CCOc1ccc(C2(C(=O)O)CC(F)(F)C2(F)F)cc1` (stereo not given), for which the melting point stood at 194 °C.

Consider `Cc1cnc2c(c1)CCCC2NC(=S)NC(=O)c1ccccc1` (stereo not given), for which the melting point worked out at 168 °C.

The compound `CS(=O)c1ccc(Oc2ccc([N+](=O)[O-])cc2C#N)cc1` (stereo not given) showed a melting point of 159 to 160 °C.

`O=Cc1ccccc1-n1nnnc1CC(=O)C(F)(F)F` displayed a melting point of 128 °C.

On to `CC12CCC(O)CC1CCC1C2CCC2(C)C(C=NNC(N)=O)CCC12O` (stereo not given), for which the melting point was in the range of 222 to 226 °C.

As for `O=C1CC(=O)N(Cc2ccccc2)[C@H](Cc2ccccc2)C1`, the melting point was in the range of 97 to 97.5 °C.

The compound `CC(C)(C)c1ccc(C(O)(c2ccccc2)c2ncc[nH]2)cc1` (stereo not given) displayed a melting point of 166 °C.

Regarding `Nc1ncc2cc(-c3c(F)cccc3F)c(N)nc2n1`, the melting point was > 300 °C.

Compound `Cc1cccc(Oc2ccc(Cl)cc2C(=O)O)c1` returned a melting point of 124 to 125 °C.

The compound `CC#CCOc1ccc(S(=O)(=O)C(C(=O)NO)C2CCN(C(=O)c3ccccc3)CC2)cc1` (stereo not given) gave a melting point of 224 °C.

`O=C(Nc1nnn[nH]1)c1ccccc1[N+](=O)[O-]`: the melting point was 272 to 273 °C.

Consider `CCNc1nc(C)c(-c2ccnc(Nc3cccc(S(=O)(=O)NCc4ccccc4)c3)n2)s1`, for which the melting point was in the range of 204 to 205 °C.

`Cc1cccc(C2C(C#N)=C(C(C)C)Nc3n[nH]cc32)c1[N+](=O)[O-]` (stereo not given): the melting point was 261 °C.

In turn, `CCCCCCC(C)(C)c1ccc(C2=CCCN(C)C2)c(O)c1` registered a melting point of 126 to 127 °C.

As to `OCc1c(OCc2ccccc2)ccc2c1CC[C@@H](NC1CCC1)[C@@H]2O` (relative stereo), the melting point lay in the range of 156 to 158 °C.

With `O=C(NC/C=C\COc1cc(CN2CCCCC2)ccn1)c1ccc(Cl)s1`, the melting point fell in the range of 75 to 77 °C.

With `O=C(OC1c2nccnc2C(=O)N1c1ccc2ccc(Cl)nc2n1)N1CCCCC1` (stereo not given), the melting point was found to be 249 °C.

In turn, `CCOC(=O)Cn1c(=O)n(Cc2ccc(Cl)cc2)c(=O)c2ccccc21` yielded a melting point of 137 °C.
